Assays:
[1] = tested on: metal ions in retinal drusen; assay: Post mortem retina screening, ZP1 zinc labeling of Bruch membrane; details: 15 hours incubation; TPEN 100 μM, PB-1033 100 and 250 μM; 10 μM ZP1
Method: Post Mortem Screening The BAS assay is adopted for post mortem retina. Using a trephine, 6 mm diameter regions of peripheral retina from frozen donor eyes are dissected. Following defrosting, the neuronal retina and the RPE cells are removed by gentle agitation in PBS buffer. Following removal of the RPE cells, strips of the Bruch membrane are cut from the eye. 4 samples are prepared: 1) Control […] Samples are then washed 3 times and the labeling visualized using a fluorescence and confocal microscope. A repeat of this procedure is performed with the exception that samples are incubated for a period of 15 hours before washing to determine differential metal binding over this longer period. The test results are in the form of fluorescence imaging from a confocal microscope of the 4 samples tested in this Example after 15 hours of sample incubation. […] Fluorescence microscopic photographs (which are in colour) are available upon request from the […].

[2] = molecular target: T1, Abeta:Zn (25:50 μM) Synthetic Aggregations (Homo sapiens, UniProt P05067); assay: Disaggregation of Abeta:Zn synthetic aggregates (ThT fluorescence); assay type: biochemical; details: for Disaggregation % Aggregate reduction at 5 μM: 5 μM test compound; for EC50: Abeta:Zn 25:50 μM aggregates
T1 construct: PB Compound Mediated Dissolution of Aggregated Abeta 1-42; purchased Keck Laboratory, Yale University School of Medicine
Summary of the method: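 ThT signal (excitation 450 nm, emission 480 nm) measured after compounds at final 1, 5, 10, 25 and 50 μM acted 2 h at 37 degrees on preformed aggregates. Those aggregates came from 24 h rotating incubation of 25 μM Abeta1-42, 50 μM ZnCl2 and 50 μM ThT in PBS pH 6.6.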

Aβ 1-42 = molecular target: T2, Aβ 1-42 (Homo sapiens, UniProt P05067); assay: Fluorometric H2O2 assay (inhibition of Abeta H2O2 production); assay type: biochemical; details: concentration required to inhibit 50% of Abeta H2O2 production; read-out: H2O2 IC50
T2 construct: The reaction solutions contained Aβ 1-42 at concentrations
Summary of the method: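 Reactions in PBS pH 7.4 at 37 C for 60 min, containing Aβ, copper and test compound. H2O2 output read as fluorescence of HRP-coupled deacetylated DCF. Fluorescence converted to H2O2 concentration via H2O2 standards.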

[3] = mouse, in vivo, 10 days
[4] = Mice plasma concentration after oral dose; assay type: in vivo; details: 30 min to 4 h after single or repeat oral dose of 30 mg/kg
[5] = tested on: M17 human neuroblastoma cells; assay: Cytotoxicity, M17 human neuroblastoma cells; assay type: cell-based; details: for Cytotox (% viable) M17 cells at 1 μM: 1 μM test compound; for Cytotox (% viable) M17 cells at 10 μM: 10 μM test compound
Method: Assay 3. MTS Assay for Cell Viability
Cell viability is determined using the MTS assay. Culture medium is replaced with fresh neurobasal medium plus B27 supplements minus antioxidants. 1/10th volume MTS solution (Cell Titre 96 Aqueous One, Promega Corporation) and incubated at 37° C., 2 hrs. 200 microliter aliquots are measured with a spectrophotometer at 560 nm.

[6] = tested on: dityrosine oligomerization; assay: CuTy: inhibition of dityrosine oligomerization; assay type: biochemical; details: referenced to in-house standard (set as 100% inhibition)
[7] = E Log D, chromatographic method; assay type: physicochemical; details: pH 7.4
Method: Effective Log D values were measured using a chromatographic method employing a SUPELCOSIL LC-ABZ column using an octanol saturated mobile phase at pH 7.4.

[8] = tested on: Abeta in extract of post-mortem human AD brain tissue; assay: BAS: human brain amyloid solubilization assay; assay type: biochemical; details: max effect across the concentration range, referenced to baseline PBS
Summary of the method: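 Plaque-bearing post-mortem AD cortex homogenised in ice-cold PBS pH 7.4; soluble Aβ in 100,000×g supernatant, insoluble Aβ from resuspended pellet. Fractions run on Tris-Tricine SDS-PAGE, immunoblotted with W02, densitometry against synthetic Aβ40 standards.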

Aβ deposits = details: daily oral gavage 30 mg/kg, 9 weeks, 13-14 months old transgenic mice
[9] = tested on: primary cortical neuronal cultured cells; assay: Test compound cytotoxicity, MTS assay, primary cortical neuronal cultures; assay type: cell-based, mouse
Summary of the method: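 Primary cortical neurons were cultured five days in Neurobasal/B27, then exposed on day six to compounds (from 2.5 mM DMSO stocks) in medium minus antioxidants, in triplicate for 4 days at 37° C. Viability was measured by MTS, 2 h at 37° C, absorbance at 560 nm.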

T2 sequence (P05067 672-713 limits assumed): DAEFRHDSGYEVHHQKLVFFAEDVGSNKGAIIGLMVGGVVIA
T1 sequence (P05067 672-713 limits assumed): as above

Row | Compound | ZP1 (zinc sensor) labeling of post mortem Bruch membrane [1] | Disaggregation % Aggregate reduction at 5 μM [2] [%] | EC50 [2] [nM] | IC50 (Aβ 1-42) [nM] | Toxicity at 30 mg/kg [3] | Mice plasma concentration [4] | Cytotox (% viable) M17 cells at 1 μM [5] [%] | Cytotox (% viable) M17 cells at 10 μM [5] [%] | CuTy % inhibition of dityrosine oligomerization [6] | ElogD (E) [7] | BAS max effect [8] [%] | Tg Mice % difference from control in Amyloid plaque abundance (Aβ deposits) | Tg Mice % difference from control in insoluble brain amyloid burden (Aβ deposits) | Tg Mice % difference from control in soluble brain amyloid burden (Aβ deposits) | Cytotox (% viable) Neuronal cells at 1 μM ([9]; 1 μM test compound) [%] | Cytotox (% viable) Neuronal cells at 10 μM ([9]; 10 μM test compound) [%]
1 | c1ccc(CN(CCN(Cc2ccccn2)Cc2ccccn2)Cc2ccccn2)nc1 [TPEN, reference compound] | inhibited ZP1 labeling |  |  |  |  |  |  |  |  |  |  |  |  |  |  | 
2 | CC(C)n1cnc2c(O)c(I)ccc2c1=O [PB 1153] |  | 53 | 4700 | 320 | 10 days, 1/4 deaths | Up to 277 ng/ml ng/mL |  |  |  |  |  |  |  |  |  | 
3 | Nc1cc(Cn2cnc3c(O)c(Cl)cc(Cl)c3c2=O)ccn1 [PB 1250] |  |  |  | 480 | 10 days, 1/4 deaths |  | 114.8 | 100.7 | CuTy: 80% inhibition |  |  |  |  |  |  | 
4 | CCn1cnc2c(O)c(I)ccc2c1=S [PB 1168] |  | 70 | 1110 | 400 | 10 days, none, 1/4 mild signs | Up to 400 ng/ ml ng/mL | 85.7 | 43 |  |  |  |  |  |  |  | 
5 | CCn1cnc2c(O)c(I)cc(Cl)c2c1=O [PB 1138] |  | 53 | 4700 | 300 | 10 days, 2/4 deaths | Up to 1802 ng/ mL ng/mL | 99.7 | 68.2 |  |  |  |  |  |  |  | 
6 | O=C(NCCc1c[nH]cn1)c1ccc2c(Cl)cc(Cl)c(O)c2n1 [PB 1038] |  | 51.3 | 4850 | 260 |  | Up to 2694 ng/ mL ng/mL |  |  |  | 2.92 | 627 | Decrease | Decrease | Increase | 91 | 84
7 | CC(C)c1cnc2c(O)c(I)ccn2c1=O [PB 1142] |  | 42 | 7100 | 370 | 10 days, 1/4 death |  | 96.7 | 44.2 |  |  |  |  |  |  |  | 
8 | CCCCc1cnc2c(O)cccn2c1=S [PB 1148] |  | 70 | 1550 | 410 | 7 days, 2/4 deaths | Up to 57 ng/ml ng/mL |  |  |  |  |  |  |  |  |  | 

From patent publication US9163018B2, “Method of treatment of age-related macular degeneration (AMD)” (Prana Biotechnology Limited, priority 2006, dated 2015)
